# Experimental data taken from ChEMBL document CHEMBL3797052 (Eur J Med Chem, 2016).
# pIC50: −log10 of the molar value.
# Columns and labels:
# SK-MEL-5 = test: Antiproliferative activity against human SK-MEL-5 cells assessed as cell growth at 10^-4 M after 48 hrs by sulforhodamine B assay; format: functional; details: SK-MEL-5, 48 h, read-out: Activity
# NCI-H23 = test: Antiproliferative activity against human NCI-H23 cells assessed as cell growth at 10^-6 M after 48 hrs by sulforhodamine B assay; format: functional; details: NCI-H23, 48 h, read-out: Activity
# SK-MEL-2 = test: Antiproliferative activity against human SK-MEL-2 cells assessed as cell growth at 10^-8 M after 48 hrs by sulforhodamine B assay; format: functional; details: SK-MEL-2, 48 h, read-out: Activity
# [1] = Antiproliferative activity against human COLO205 cells assessed as cell growth at 10^-4 M after 48 hrs by sulforhodamine B assay; format: functional; details: COLO 205, 48 h, read-out: Activity
# [2] = Antiproliferative activity against human MOLT4 cells assessed as cell growth at 10^-6 M after 48 hrs by sulforhodamine B assay; format: functional; details: MOLT-4, 48 h, read-out: Activity
# SK-MEL-28 [3] = test: Antiproliferative activity against human SK-MEL-28 cells assessed as cell growth at 10^-7 M after 48 hrs by sulforhodamine B assay; format: functional; details: SK-MEL-28, 48 h, read-out: Activity
# [4] = Antiproliferative activity against human BT549 cells assessed as cell growth at 10^-7 M after 48 hrs by sulforhodamine B assay; format: functional; details: BT-549, 48 h, read-out: Activity
# [5] = Antiproliferative activity against human RPMI8226 cells assessed as cell growth at 10^-6 M after 48 hrs by sulforhodamine B assay; format: functional; details: RPMI-8226, 48 h, read-out: Activity
# MCF7 = test: Antiproliferative activity against human MCF7 cells assessed as growth inhibition after 48 hrs by sulforhodamine B assay; format: functional; details: MCF7, 48 h; for CC50: read-out: LC50 (the source's name)
# [6] = Antiproliferative activity against human DU145 cells assessed as cell growth at 10^-7 M after 48 hrs by sulforhodamine B assay; format: functional; details: DU-145, 48 h, read-out: Activity
# [7] = Antiproliferative activity against human HL-60(TB) cells assessed as cell growth at 10^-4 M after 48 hrs by sulforhodamine B assay; format: functional; details: HL-60, 48 h, read-out: Activity
# SK-MEL-28 [8] = test: Antiproliferative activity against human SK-MEL-28 cells assessed as cell growth at 10^-4 M after 48 hrs by sulforhodamine B assay; format: functional; details: SK-MEL-28, 48 h, read-out: Activity
# [9] = Antiproliferative activity against human UACC257 cells assessed as cell growth at 10^-8 M after 48 hrs by sulforhodamine B assay; format: functional; details: UACC-257, 48 h, read-out: Activity
# [10] = Antiproliferative activity against human RXF393 cells assessed as cell growth at 10^-4 M after 48 hrs by sulforhodamine B assay; format: functional; details: RXF 393, 48 h, read-out: Activity
# [11] = Antiproliferative activity against human UACC62 cells assessed as growth inhibition after 48 hrs by sulforhodamine B assay; format: functional; details: UACC-62, 48 h; for CC50: read-out: LC50 (the source's name)
# [12] = Antiproliferative activity against human OVCAR3 cells assessed as cell growth at 10^-6 M after 48 hrs by sulforhodamine B assay; format: functional; details: OVCAR-3, 48 h, read-out: Activity
# [13] = Antiproliferative activity against human SW620 cells assessed as growth inhibition after 48 hrs by sulforhodamine B assay; format: functional; details: SW-620, 48 h; for CC50: read-out: LC50 (the source's name)
# MDA-MB-468 = test: Antiproliferative activity against human MDA-MB-468 cells assessed as growth inhibition after 48 hrs by sulforhodamine B assay; format: functional; details: MDA-MB-468, 48 h; for CC50: read-out: LC50 (the source's name)
# [14] = Antiproliferative activity against human OVCAR8 cells assessed as growth inhibition after 48 hrs by sulforhodamine B assay; format: functional; details: OVCAR-8, 48 h
# [15] = target: Serine/threonine-protein kinase B-raf (Homo sapiens, UniProt P15056, V600E); test: Inhibition of BRAF V600E mutant (unknown origin) measured after 40 mins by scintillation counting
# CCRF-CEM = test: Antiproliferative activity against human CCRF-CEM cells assessed as cell growth at 10^-4 M after 48 hrs by sulforhodamine B assay; format: functional; details: read-out: Activity
# [16] = Antiproliferative activity against human Caki1 cells assessed as cell growth at 10^-7 M after 48 hrs by sulforhodamine B assay; format: functional; details: CAKI-1, 48 h, read-out: Activity
# U-251 = test: Antiproliferative activity against human U251 cells assessed as cell growth at 10^-8 M after 48 hrs by sulforhodamine B assay; format: functional; details: U-251, 48 h, read-out: Activity
# CYP3A4 = CYP3A4 (Homo sapiens, UniProt P08684); test: Inhibition of recombinant human CYP3A4 assessed as remaining enzyme activity using CYP3A4 blue as substrate at 10 uM after 5 mins in presence of NADP by fluorescence plate reader analysis; format: ADME; details: recombinant human CYP3A4, probe CYP3A4 blue, read-out: Activity
# [17] = Antiproliferative activity against human HOP92 cells assessed as cell growth at 10^-6 M after 48 hrs by sulforhodamine B assay; format: functional; details: HOP-92, 48 h, read-out: Activity
# [18] = Antiproliferative activity against human MOLT4 cells assessed as growth inhibition after 48 hrs by sulforhodamine B assay; format: functional; details: MOLT-4, 48 h
# [19] = Antiproliferative activity against human IGROV1 cells assessed as cell growth at 10^-4 M after 48 hrs by sulforhodamine B assay; format: functional; details: IGROV-1, 48 h, read-out: Activity
# A498 = test: Antiproliferative activity against human A498 cells assessed as cell growth at 10^-7 M after 48 hrs by sulforhodamine B assay; format: functional; details: A498, 48 h, read-out: Activity
# [20] = Antiproliferative activity against human SNB75 cells assessed as cell growth at 10^-8 M after 48 hrs by sulforhodamine B assay; format: functional; details: SNB-75, 48 h, read-out: Activity
# [21] = Antiproliferative activity against human HOP92 cells assessed as cell growth at 10^-4 M after 48 hrs by sulforhodamine B assay; format: functional; details: HOP-92, 48 h, read-out: Activity
# T47D = test: Antiproliferative activity against human T47D cells assessed as cell growth at 10^-7 M after 48 hrs by sulforhodamine B assay; format: functional; details: read-out: Activity
# [22] = Antiproliferative activity against human HOP62 cells assessed as growth inhibition after 48 hrs by sulforhodamine B assay; format: functional; details: HOP-62, 48 h
# SN12C = test: Antiproliferative activity against human SN12C cells assessed as cell growth at 10^-7 M after 48 hrs by sulforhodamine B assay; format: functional; details: read-out: Activity
# [23] = Antiproliferative activity against human HCT15 cells assessed as growth inhibition after 48 hrs by sulforhodamine B assay; format: functional; details: HCT-15, 48 h
# K562 = test: Antiproliferative activity against human K562 cells assessed as cell growth at 10^-4 M after 48 hrs by sulforhodamine B assay; format: functional; details: K562, 48 h, read-out: Activity
# Sequence of Serine/threonine-protein kinase B-raf (P15056 2-766 V600E limits assumed): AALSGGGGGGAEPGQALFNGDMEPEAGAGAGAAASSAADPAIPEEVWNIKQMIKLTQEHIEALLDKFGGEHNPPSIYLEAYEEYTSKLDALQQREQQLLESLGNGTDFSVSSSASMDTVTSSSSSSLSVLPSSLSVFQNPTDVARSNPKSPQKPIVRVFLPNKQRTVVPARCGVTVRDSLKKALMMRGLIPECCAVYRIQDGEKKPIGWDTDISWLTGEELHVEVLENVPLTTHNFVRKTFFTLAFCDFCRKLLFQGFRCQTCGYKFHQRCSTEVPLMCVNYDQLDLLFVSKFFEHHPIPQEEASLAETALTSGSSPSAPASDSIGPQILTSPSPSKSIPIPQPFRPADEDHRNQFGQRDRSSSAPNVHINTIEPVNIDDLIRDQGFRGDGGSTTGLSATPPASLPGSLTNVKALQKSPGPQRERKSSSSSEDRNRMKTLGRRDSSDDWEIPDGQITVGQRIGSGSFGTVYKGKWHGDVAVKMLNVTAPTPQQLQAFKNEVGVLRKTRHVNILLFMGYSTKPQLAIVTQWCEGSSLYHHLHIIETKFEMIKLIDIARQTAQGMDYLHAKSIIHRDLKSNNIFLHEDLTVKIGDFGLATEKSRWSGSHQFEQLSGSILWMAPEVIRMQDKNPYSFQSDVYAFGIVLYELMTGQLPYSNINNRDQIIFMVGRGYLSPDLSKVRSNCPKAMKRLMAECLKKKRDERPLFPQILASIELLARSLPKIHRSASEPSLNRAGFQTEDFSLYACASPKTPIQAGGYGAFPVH
# Sequence of CYP3A4 (P08684 whole entry): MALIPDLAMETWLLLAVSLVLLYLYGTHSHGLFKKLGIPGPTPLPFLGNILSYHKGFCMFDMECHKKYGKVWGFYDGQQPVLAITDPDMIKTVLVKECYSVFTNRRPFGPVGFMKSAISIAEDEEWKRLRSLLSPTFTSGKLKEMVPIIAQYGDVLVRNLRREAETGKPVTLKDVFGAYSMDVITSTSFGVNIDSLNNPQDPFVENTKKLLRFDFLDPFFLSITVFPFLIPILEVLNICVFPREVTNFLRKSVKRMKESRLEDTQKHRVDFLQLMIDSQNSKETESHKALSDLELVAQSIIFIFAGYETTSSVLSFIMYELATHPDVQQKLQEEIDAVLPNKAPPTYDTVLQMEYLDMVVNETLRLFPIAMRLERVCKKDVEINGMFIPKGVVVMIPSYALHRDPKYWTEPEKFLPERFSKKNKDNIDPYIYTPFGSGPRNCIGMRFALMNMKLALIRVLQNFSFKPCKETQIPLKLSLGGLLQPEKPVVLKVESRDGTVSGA
smiles,measurement,setting,value
CNC(=O)c1cc(Oc2ccc3nc(NC(=O)Nc4ccc(Cl)c(C(F)(F)F)c4)sc3c2)ccn1,growth at 100 µM,SK-MEL-5,57%
same,growth at 1 µM,NCI-H23,88%
same,growth at 0.01 µM,SK-MEL-2,103%
same,growth at 100 µM,[1],53%
same,growth at 1 µM,[2],95%
same,growth at 0.1 µM,SK-MEL-28 [3],92%
same,growth at 0.1 µM,[4],100%
same,growth at 1 µM,[5],82%
same,GI50,MCF7,1.72 µM
same,CC50,MCF7,> 100 µM
same,growth at 0.1 µM,[6],109%
same,growth at 100 µM,[7],59%
same,growth at 100 µM,SK-MEL-28 [8],38%
same,growth at 0.01 µM,[9],102%
same,growth at 100 µM,[10],-78%
same,GI50,[11],2.06 µM
same,CC50,[11],> 100 µM
same,growth at 1 µM,[12],108%
same,GI50,[13],2.99 µM
same,TGI,[13],> 100 µM
same,CC50,[13],> 100 µM
same,GI50,MDA-MB-468,1.36 µM
same,TGI,MDA-MB-468,4.1 µM
same,CC50,MDA-MB-468,> 100 µM
same,GI50,[14],2.34 µM
same,LC50,[14],> 100 µM
same,TGI,[14],5.25 µM
same,pIC50,[15],6.88
same,growth at 100 µM,CCRF-CEM,53%
same,growth at 0.1 µM,[16],93%
same,growth at 0.01 µM,U-251,102%
same,"activity at 5 min, 10 µM",CYP3A4,105%
same,growth at 1 µM,[17],57%
same,LC50,[18],> 100 µM
same,TGI,[18],> 100 µM
same,growth at 100 µM,[19],-35%
same,growth at 0.1 µM,A498,97%
same,growth at 0.01 µM,[20],79%
same,growth at 100 µM,[21],-64%
same,growth at 0.1 µM,T47D,92%
same,GI50,[22],1.94 µM
same,LC50,[22],> 100 µM
same,TGI,[22],4.74 µM
same,growth at 0.1 µM,SN12C,93%
same,GI50,[23],1.95 µM
same,LC50,[23],> 100 µM
same,growth at 100 µM,K562,59%
CNC(=O)c1cc(Oc2ccc(NC(=O)Nc3ccc(Cl)c(C(F)(F)F)c3)cc2)ccn1 [SORAFENIB],GI50,MCF7,2.51 µM
same,TGI,MCF7,7.94 µM
same,CC50,MCF7,50.1 µM
same,TGI,[11],5.01 µM
same,CC50,[11],20 µM
same,GI50,[13],2.51 µM
same,TGI,[13],12.6 µM
same,CC50,[13],39.8 µM
same,GI50,MDA-MB-468,2 µM
same,TGI,MDA-MB-468,7.94 µM
same,CC50,MDA-MB-468,39.8 µM
same,GI50,[14],2.51 µM
same,TGI,[14],10 µM
same,GI50,[18],3.16 µM
same,TGI,[18],100 µM
same,GI50,[22],2 µM
same,TGI,[22],7.94 µM
same,GI50,[23],2.51 µM
same,TGI,[23],12.6 µM
